Structures are written as SMILES.

One test deals with T1, Sf9/huANT3 mitochondria (Homo sapiens, UniProt P12236).
T1 construct: expressed in transfected cells; host or cells: Spodoptera frugiperda Sf9 cells infected with recombinant baculovirus; isolated mitochondria
T1 sequence (P12236 1-298): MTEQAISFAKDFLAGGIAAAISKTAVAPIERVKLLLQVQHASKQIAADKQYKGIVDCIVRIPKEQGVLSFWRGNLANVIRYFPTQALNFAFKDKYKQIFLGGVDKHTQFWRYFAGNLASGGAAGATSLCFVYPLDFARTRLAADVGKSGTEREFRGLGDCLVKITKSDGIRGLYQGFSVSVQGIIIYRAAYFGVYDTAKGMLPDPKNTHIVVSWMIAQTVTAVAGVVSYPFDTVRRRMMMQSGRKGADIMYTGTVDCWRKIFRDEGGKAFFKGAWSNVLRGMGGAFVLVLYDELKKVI
In words: [125I]atractyloside competition binding to Sf9/huANT3 mitochondria. The note with it: 0.5 nM [125I]atractyloside. As to the method: Sf9 cells expressing huANT3 were grown in spinner flasks. The cells were harvested by centrifugation at 2,000 g for 5 min. The cell pellet was resuspended in MSB and subjected to 3 freeze-thaw cycles. Cell membranes and debris were removed by centrifugation at 600 g for 5 min; mitochondria were collected by centrifuging the supernatant at 20,000 g for 15 min. The mitochondrial pellets were suspended in MSB, and used for binding assays as described above. Homologous competition of [^32P]ATP binding was performed using 25 μg mitochondrial protein per assay.
These findings are consistent with the presence of functional huANT3 in the mitochondrial preparations.
Atractyloside analogs (Example 6; Table 1; see also Examples 7-9) were used in pseudo-homologous competition binding assays using Sf9/huANT3 mitochondria. Mitochondria (see Example 12, 25 μg/tube) were incubated with 0.5 nM [^125I]atractyloside and varying concentrations of non-radiolabeled atractyloside or fluorescent atractyloside derivatives as described above (FIGS. 7-9).

Test [1] deals with T2, bovine mitochondria (ANT) (Bos taurus, UniProt P02722).
T2 construct: from tissue; host or cells: bovine heart mitochondria
T2 sequence (P02722 2-298 limits assumed): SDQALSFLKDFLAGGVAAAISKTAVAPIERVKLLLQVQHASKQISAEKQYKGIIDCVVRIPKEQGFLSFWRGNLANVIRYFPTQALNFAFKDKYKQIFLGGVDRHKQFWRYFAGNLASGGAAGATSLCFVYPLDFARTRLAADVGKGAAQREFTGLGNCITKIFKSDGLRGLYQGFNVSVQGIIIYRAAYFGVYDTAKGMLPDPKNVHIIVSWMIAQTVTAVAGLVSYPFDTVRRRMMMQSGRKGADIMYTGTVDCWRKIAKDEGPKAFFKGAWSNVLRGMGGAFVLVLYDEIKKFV
In words: 125I-compound 24 competition binding (Tube Assay), beef heart mitochondria. As to the method: Bovine mitochondria were prepared as follows: Essentially all of the fat and cholesterol […] was removed from two bovine hearts which were then cut into 1-inch cubes. The cubes were ground in a meat grinder using the fine setting. Three hundred (300) […] portions of the ground heart were weighed out and, to each was added 400 ml of Isolation Buffer (IB; 250 mM sucrose, 1 mM sodium succinate, 0.2 mM K^+EDTA, 10 mM Tris-base, pH 7.8). (All buffers were filter sterilized, and column buffers were degassed, and, unless otherwise noted, all steps were carried out at 0 to 4° C. on ice or in pre-cooled rotors and centrifuges.) The preparations were mixed in a blender two times for 15 seconds on high setting and, in between and after blends, the pH was adjusted to 7.8 with 2M Tris-base. The homogenate was centrifuged for 20 minutes at 1,200×g, and the supernatant was poured through two layers of cheese cloth and adjusted to pH 7.8 with 2M Tris-base. The supernatant was then centrifuged for 30 minutes at […]. The supernatant was decanted, and the buff-colored outer pellet was dislodged with about 10 ml of IB and discarded. The brown inner pellet (heavy mitochondria) was resuspended in IB (about 10 ml per pellet). The pellets were homogenized in a glass-teflon homogenizer (2 passes at high drill speed). Samples were combined and centrifuged for 30 minutes at 11,000×g. The supernatant was decanted, and the pellets were resuspended in 60 ml of IB per 900 gm of ground heart. This centrifugation step was repeated and the pellets were finally resuspended in IB (60 ml per 900 gm of ground heart). One kilogram of beef heart typically yields about one (1) gram of mitochondria
The mitochondrial preparations were divided into aliquots (typically, 50μl for T. ni mitochondria or 20 μl for bovine mitochondria) and then either used directly in assays or flash frozen and stored at −80° C. The total protein content in the mitochondrial preparations was determined using the enhanced protocol (30 minutes at 60° C.; see http://www.ruf.rice.edu/˜bioslabs/methods/protein/BCA.html) of the bicinchoninic acid (BCA) assay (available in kit form from Pierce, Rockford, Ill.).
In the “Tube Assay,” mitochondria (from about 1 to 10 μg of total protein) were resuspended in 100 μl of Tris-KCl buffer with 0.1% BSA, pH 7.4. ^125I-labeled compound 24 (Example 11) was added to a final concentration of 0.5 nM. When used, competitors were added at these concentration ranges: unlabeled atractyloside or compound 24 final concentration from 5 nM to 10 μM; unlabeled ADP (a lower affinity competitor) was added at a final concentration of 500 nM to 1 mM.
The reaction mixes were incubated on ice for 60 minutes and then pelleted by centrifugation (approximately 16,000×g) for 11 minutes at 4° C.
Unbound ^125I-compound 24 was removed by aspiration. The pellets were contact-washed with Tris-KCl buffer, pH 7.4, and recentrifuged. The resultant pellets were aspirated and the radioactivity (dpm) in each was determined by gamma counting.

Another test has as its target T3, His-tagged huANT3 (Homo sapiens, UniProt P12236).
T3 sequence (P12236 1-298): T1 sequence (P12236 1-298)
In words: 125I-compound 24 competition binding to recombinant His-tagged huANT3 immobilized on Ni beads. The note with it: His-tagged huANT3 on Ni-agarose beads, 1 hour at 4° C.; FIG. 19. Set-up: made in house; host or cells: baculovirus-infected Trichoplusia ni cells; mitochondria solubilized and captured on Ni-agarose beads (Qiagen). As for the experimental part: Competitive binding assays were also performed using recombinant His-tagged huANT3 (see Example 3) immobilized on Ni beads (FIG. 19) instead of mitochondria. To prepare the bead-immobilized huANT3, mitochondria from T. ni cells infected with a baculovirus expressing huANT3 (see Example 3) were solubilized with 0.5% O-glucopyranoside in the presence of 0.5 nM ^125I-compound 24 Ni-agarose beads (Qiagen, Hilden, Germany), and various concentrations of ATR or BKA as unlabeled competitors. After 1 hour at 4° C., the beads were washed and radioactivity that remained associated with the beads was counted.

Turning to `C=C1[C@@H]2CCC3[C@@](CC[C@@H]4[C@H](C(=O)O)C[C@@H](O[C@@H]5O[C@H](CO)[C@@H](OS(=O)(=O)[O-])[C@H](OS(=O)(=O)[O-])[C@H]5OC(=O)CC(C)C)C[C@@]34C)(C2)[C@@H]1O.[K+].[K+]` (some centres unmarked) [ATR, atractyloside], the “cpm [125I]Atractyloside bound in the presence of ATR derivative” value on Sf9/huANT3 mitochondria ([ATR Derivative] 1.0 nM) came to 224 cpm; on Sf9/huANT3 mitochondria ([ATR Derivative] 5.0 nM), 146 cpm; on Sf9/huANT3 mitochondria ([ATR Derivative] 10 nM), 42 cpm; on Sf9/huANT3 mitochondria ([ATR Derivative] 50 nM) it was 26 cpm; at Sf9/huANT3 mitochondria ([ATR Derivative] 1,000 nM) it was 36 cpm; on Sf9/huANT3 mitochondria ([ATR Derivative] 5,000 nM) it was 45 cpm. On Sf9/huANT3 mitochondria ([ATR Derivative] 10,000 nM), the “cpm [125I]Atractyloside bound in the presence of ATR derivative” value stood at 0 cpm. Besides, the IC50 in test [1] (0.5 nM 125I-compound 24, FIG. 17, read-out: IC50, competitive inhibition of 125I-compound 24 binding) was ~0.044 µM. For the same compound, in test [1] (1 μg protein/tube, FIG. 13), the “affinity relative to the low affinity ANT ligand ADP” value is recorded as “about 1,000 fold”. Besides, the “competitive inhibition of 125I-compound 24 binding (in words)” value in test [1] (FIGS. 11, 13, 16) is recorded as “slightly higher affinity than compound 24”; on His-tagged huANT3 it was “effectively compete with compound 24”.

The IC50 is the point on the concentration scale where inhibition reaches its midpoint.

The values above are taken from patent US6906175B2, “Production of adenine nucleotide translocator (ANT), novel ANT ligands and screening assays therefor” (priority 1998, dated 2005).
